Key:
hIL17 = experiment: IL-17 release from differentiated primary human T-cells (IL-17A HTRF assay); format: cell-based; details: inhibition of IL-17A levels; primary human CD4+ T cells differentiated into Th17 cells, 46-hour incubation
Description: D. IL-17 Release from Differentiated Primary Human T-Cells and Cell Viability
Primary human cryopreserved CD4+ T Cells (Lonza, donor #0000402103) were plated in Lymphocyte Growth Medium-3 (LGM-3, Lonza) according to the manufacturer's recommendations, and allowed to recover for approximately 3 hours at 37° C. with 5% CO2 in a humidified atmosphere. After the recovery step, cells were collected by centrifugation and re-plated in 96-well plates at a density of ˜140,000 cells per well in LGM-3 medium that contained DMSO (vehicle) or test compound (2-500 nM or 4-1000 nM concentration range). Triplicate wells were plated for each test condition. DMSO (final concentration ≤0.1%) was used as the vehicle. Immediately after plating, CD4+ T cells were activated by adding Dynabeads Human T-Activator CD3/CD28 (Life Technologies; bead-to-cell ratio of 1:2.5) and differentiated into Th17 cells by adding a mixture of the following cytokines: transforming growth factor-β (TGF-β, 5 ng/mL), IL-6 (20 ng/mL), IL-23 (20 ng/mL), and […] (10 ng/mL). Undifferentiated control cells received only cytokine IL-2 (50 ng/mL). All human recombinant cytokines were purchased from R&D Systems. Following a 46-hour incubation at 37° C. with 5% CO2 in a humidified atmosphere, the plates were centrifuged for 3 minutes at 250×g, and half of the supernatant was transferred to a new plate to be used in the IL-17A assay (see below). Cell viability was assessed in the original plate using the CyQuant Direct Assay (Life Technologies). CyQuant values from test compound samples were normalized to those from DMSO-treated samples. The concentration of IL-17A in the supernatant was measured using the Homogeneous Time-Resolved Fluorescence (HTRF) assay (Cisbio Bioassays) according to the manufacturer's protocol. The assay was performed at room temperature in low volume, solid white 384-well plates (Greiner Bio-One). Samples and standards (serially-diluted human recombinant IL-17A (0 to 5,000 pg/mL concentration range; Cisbio Bioassays) were incubated with the anti-human IL-17A antibody conjugate for 16 hours and fluorescence was measured using a Pherastar FS microplate reader (BMG Labtech) in the HTRF mode (excitation at 337 nm and emission at 665 nm and 620 nm). IL-17A concentrations were assessed in duplicate aliquots of supernatant from each well resulting in a total of six readings per test condition. The 665 nm/620 nm signal ratio was calculated and the concentration of IL-17A in each sample was determined by interpolation from the standard curve. IL-17A values from test compound samples were normalized to those from DMSO-treated samples. Data were analyzed using GraphPad Prism version 6.00 for Windows (GraphPad Software, La Jolla Calif. USA). A non-linear regression analysis with log (inhibitor) vs. normalized response using a variable slope was applied to fit the data and determine the IC50 values for inhibition of IL-17A levels and cell viability.

human RORγ = target: T1, human RORγ (Homo sapiens, UniProt P51449); experiment: RORγ assay (GAL4-RORγ hybrid luciferase reporter, inverse-agonist activity); format: cell-based; details: GAL4-RORγ hybrid reporter cells, 23 hours
T1 sequence (P51449 269-508 limits assumed): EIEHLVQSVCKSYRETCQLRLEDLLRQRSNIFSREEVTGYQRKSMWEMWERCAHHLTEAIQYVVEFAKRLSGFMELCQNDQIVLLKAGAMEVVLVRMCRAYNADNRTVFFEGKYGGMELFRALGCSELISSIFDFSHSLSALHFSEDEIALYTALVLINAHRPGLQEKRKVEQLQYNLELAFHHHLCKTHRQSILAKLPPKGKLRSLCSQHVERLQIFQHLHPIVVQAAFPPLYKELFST
From the text: C. RORγ Assay and Cell Viability
The RORγ assay system was purchased from Indigo Biosciences. This nuclear receptor assay utilizes a human cell line that has been engineered to express a hybrid form of the Human RAR-related Orphan Receptor Gamma (RORγ) at high levels. The N-terminal DNA binding domain (DBD) of the native RORγ receptor was substituted with the yeast GAL4-DBD to generate the GAL4-RORγ hybrid nuclear receptor. The reporter cell line is transfected with a plasmid that encodes the beetle luciferase gene under the control of the GAL4 upstream activating sequence (UAS). GAL4 binds to the UAS and increases transcription of downstream target genes. […] To assess the RORγ inverse-agonist activity of the test compounds, reporter cells were plated in white 96-well plates in triplicate and were treated with DMSO (vehicle) or test compound (concentration ranges of 0.4-200 nM or 2-1000 nM) at 37° C. with 5% CO2 in a humidified atmosphere for 23 hours. After this incubation, luciferin was added to the wells and luciferase activity was determined by measuring the luminescence signal using a BMG Pherastar microplate reader. Viability was determined using the Live Cell Multiplex Assay (Indigo Biosciences). Values from test compound samples were normalized to those from DMSO-treated samples. Data were analyzed using GraphPad Prism version 6.00 for Windows (GraphPad Software, La Jolla Calif. USA). A non-linear regression analysis with log (inhibitor) vs. normalized response using a variable slope was applied to fit the data and determine the IC50 values for inhibition of RORγ and cell viability.

NRF2 = experiment: AREc32 luciferase reporter assay; format: cell-based, human; details: EC2×: concentration required to increase GST ARE Luciferase reporter activity by 2-fold; AREc32 cells, 19 hours
From the text: B. AREc32 Luciferase Reporter Assay
The AREc32 luciferase reporter assay allows for quantitative assessment of the endogenous activity of the Nrf2 transcription factor in cultured mammalian cells. AREc32 cells are derived from MCF-7 human breast carcinoma cells that were stably transfected with a reporter construct that contains the firefly luciferase gene located downstream of eight copies of the rat GSTA2 antioxidant response element (ARE) sequence (Wang et al., 2006; CXR Biosciences). Active NRF2 binds to the ARE sequences and increases expression of the firefly luciferase gene. To assess the NRF2-activating potential of the test compounds, AREc32 cells were plated in black 96-well plates at a density of 20,000 cells per well in triplicate in DMEM+10% FBS+0.8 mg/mL Geneticin and incubated at 37° C. with 5% CO2 in a humidified atmosphere. The next day, cells were treated with DMSO (vehicle) or test compound (concentration ranges of 0.4-200 nM or 2-1000 nM) for 19 hours. Luciferase activity was determined using the ONE-Glo Luciferase assay (Promega). The luminescence signal was measured on a BMG Pherastar microplate reader. The mean luminescence value from test compound-treated wells was normalized to that from DMSO-treated wells and was represented as fold-induction. Data were analyzed using GraphPad Prism version 6.00 for Windows, GraphPad Software, La Jolla Calif. USA. A non-linear regression curve with log (agonist) vs. response using a variable slope was used to fit the data. Where applicable, a maximum threshold value of 50-fold over DMSO was set. EC2× values were interpolated from the curve. EC2× corresponds to the concentration of test compound required to increase GST ARE Luciferase reporter activity by 2-fold.

[1] = tested on: IFNγ-induced Nitric Oxide production; experiment: Nitric oxide production assay in RAW 264.7 mouse macrophages; format: cell-based; details: RAW264.7, suppression of IFNγ-induced NO production normalized to cell viability (WST-1), RAW 264.7, 24 hours IFNγ
Description: A. Nitric Oxide Production Assay and Cell Viability
RAW 264.7 mouse macrophages were plated in 96-well plates at a density of 30,000 cells per well in triplicate in RPMI 1640+0.5% FBS and incubated at 37° C. with 5% CO2 in a humidified atmosphere. The next day, cells were pre-treated with DMSO (vehicle) or test compound (concentration ranges of 0.4-200 nM or 2-1000 nM) for 2 hours and then treated with recombinant mouse IFNγ (R&D Systems) for 24 hours. Nitric oxide concentration in media was determined using the Griess reagent system (Promega). Cell viability was determined using WST-1 reagent (Roche). Values from test compound samples were normalized to those from DMSO/IFNγ-treated samples. IC50 values were determined based on the suppression of IFNγ-induced Nitric Oxide production normalized to cell viability.

| SMILES | IC50 (hIL17) [nM] | IC50 (human RORγ) [nM] | EC2x: concentration giving 2-fold induction of ARE luciferase reporter (NRF2) [nM] | IC50 [1] [nM] |
| --- | --- | --- | --- | --- |
| COC(=O)[C@]12CCC(C)(C)C[C@H]1[C@H]1C(=O)C=C3[C@@]4(C)C=C(C#N)C(=O)[C@@](C)(COC(C)=O)[C@@H]4CC[C@@]3(C)[C@]1(C)CC2 [Compound T8, methyl (4aS,6aR,6bS,8aR,9R,12aS,14aR,14bS)-9-(acetoxymethyl)-11-cyano-2,2,6a,6b,9,12a-hexamethyl-10,14-dioxo-1,3,4,5,6,6a,6b,7,8,8a,9,10,12a,14,14a,14b-hexadecahydropicene-4a(2H)-carboxylate] | 24 | 109 | 276 | 74.6 |
| COC(=O)[C@]12CCC(C)(C)C[C@H]1[C@H]1C(=O)C=C3[C@@]4(C)C=C(C#N)C(=O)[C@@](C)(CO)[C@@H]4CC[C@@]3(C)[C@]1(C)CC2 [Comparison Compound #300, reference compound] | 18 | 152 | 34 | 7.4 |
| COC(=O)[C@]12CCC(C)(C)C[C@H]1[C@@]1(O)C(=O)C=C3[C@@]4(C)C=C(C#N)C(=O)C(C)(C)[C@@H]4CC[C@@]3(C)[C@]1(C)CC2 [Comparison Compound #5, reference compound] | 15 | 135 | 2 | 1.6 |
| CCNC(=O)[C@]12CCC(C)(C)C[C@H]1[C@H]1C(=O)C=C3[C@@]4(C)C=C(C#N)C(=O)C(C)(C)[C@@H]4CC[C@@]3(C)[C@]1(C)CC2 [Comparison Compound #3, reference compound] | 81 | 204 | 32 | 3.4 |

The next lines start with results.

| IC50 (hIL17) [nM] | IC50 (human RORγ) [nM] | SMILES | EC2x: concentration giving 2-fold induction of ARE luciferase reporter (NRF2) [nM] | IC50 [1] [nM] |
| --- | --- | --- | --- | --- |
| 132 | 292 | CCNC(=O)[C@]12CCC(C)(C)C[C@H]1[C@H]1C(=O)C=C3[C@@]4(C)C=C(C#N)C(=O)[C@@](C)(O)[C@@H]4CC[C@@]3(C)[C@]1(C)CC2 [Compound T26, (4aS,6aR,6bS,8aR,9S,12aS,14aR,14bS)-11-cyano-N-ethyl-9-hydroxy-2,2,6a,6b,9,12a-hexamethyl-10,14-dioxo-1,3,4,5,6,6a,6b,7,8,8a,9,10,12a,14,14a,14b-hexadecahydropicene-4a(2H)-carboxamide] | 463 | 370 |
| 17 | 139 | Cc1noc([C@]23CCC(C)(C)C[C@H]2[C@H]2C(=O)C=C4[C@@]5(C)C=C(C#N)C(=O)[C@@](C)(O)[C@@H]5CC[C@@]4(C)[C@]2(C)CC3)n1 [Compound T47, (4S,4aR,6aS,6bR,8aS,12aS,12bR,14bS)-4-hydroxy-4,6a,6b, 11,11,14b-hexamethyl-8a-(3-methyl-1,2,4-oxadiazol-5-yl)-3,13-dioxo-3,4,4a,5,6,6a,6b,7,8,8a,9,10,11,12,12a,12b,13,14b-octadecahydropicene-2-carbonitrile] | 79 | 35.8 |
| 68 | 413 | CNC(=O)[C@]1(C)C(=O)C(C#N)=C[C@]2(C)C3=CC(=O)[C@]45OC(=O)[C@@]6(CCC(C)(C)C[C@H]64)CC[C@@]5(C)[C@]3(C)CC[C@@H]12 [Compound T35, (4S,4aR,6aR,6bS,8aS,12aR,12bS,14bS)-2-cyano-N,4,6a,6b, 11,11,14b-heptamethyl-3,13,16-trioxo-4,4a,5,6,6a,6b,7,8,10,11,12,12a,13,14b-tetradecahydro-3H,9H-12b,8a-(epoxymethano)picene-4-carboxamide] | >1000 | > 1000 |
| 29 | 234 | COC(=O)[C@]12CCC(C)(C)C[C@H]1[C@H]1C(=O)C=C3[C@@]4(C)C=C(C#N)C(=O)[C@@](C)(C(F)F)[C@@H]4CC[C@@]3(C)[C@]1(C)CC2 [Compound T4, methyl (4aS,6aR,6bS,8aR,9S,12aS,14aR,14bS)-11-cyano-9-(difluoromethyl)-2,2,6a,6b,9,12a-hexamethyl-10,14-dioxo-1,3,4,5,6,6a,6b,7,8,8a,9,10,12a,14,14a,14b-hexadecahydropicene-4a(2H)-carboxylate] | 36 | 19.6 |
| 37 | 361 | COC(=O)[C@]12CCC(C)(C)C[C@H]1[C@H]1C(=O)C=C3[C@@]4(C)C=C(C#N)C(=O)[C@@](C)(COC(=O)c5ccccc5)[C@@H]4CC[C@@]3(C)[C@]1(C)CC2 [Compound T9, methyl (4aS,6aR,6bS,8aR,9R,12aS,14aR,14bS)-9-((benzoyloxy)methyl)-11-cyano-2,2,6a,6b,9,12a-hexamethyl-10,14-dioxo-1,3,4,5,6,6a,6b,7,8,8a,9,10,12a,14,14a,14b-hexadecahydropicene-4a(2H)-carboxylate] | 962 | 191 |

— patent US11584775B2, “C4-modified oleanolic acid derivatives for inhibition of IL-17 and other uses” (REATA PHARMACEUTICALS, INC., priority 2015, dated 2023)
